These are literature values, as cited in patent US20250205146A1, “GRAPHENE-BASED DRUG DELIVERY DEVICE FOR MUCOSAL AND TRANSMUCOSAL ADMINISTRATION” (SISSA - SCUOLA INTERNAZIONALE SUPERIORE DI STUDI AVANZATI, priority 2022, published 2025).

SMILES strings stand for the structures.

The conditions of this data set: cyclic voltammetry, depending on the electrochemical system used.

For the molecule `Cn1c(=O)c2c(ncn2C)n(C)c1=O` [caffeine], the “irreversible oxidation peak potential” value is recorded as “over 1.4 V”.
